# Measurements from patent publication US20110152091A1, “Herbicidal Compositions Comprising Flufenacet” (BAYER CROPSCIENCE AG, priority 2009, published 2011).
# What was measured:
# Assay type in all cases: in vivo
# [1] = test system: Avena fatua (AVEFA); assay: Greenhouse trial: different soil pH values on PE application (test method 11)
# Method: (§1) In the standard design of the test, seeds of various broad-leaved weed and weed grass biotypes (origins) were sown in a 8-13 cm diameter pot filled with natural soil of a standard field soil (loamy silt; non-sterile) and covered with a covering soil layer of about 1 cm. The pots were then cultivated in a greenhouse (12-16 h of light, temperature day 20-22° C., night 15-18° C.) until the time of application. The pots were treated on a laboratory track sprayer with spray liquors comprising the compositions according to the invention, mixtures of the prior art or components used individually. Application of the active compounds or active compound combinations formulated as WG, WP, EC or otherwise was carried out at the appropriate growth stages of the plants. The application rate for the spray application was 100-600 l of water/ha. After the treatment, the plants were returned to the greenhouses.
# (§2) About 3 weeks after the application, the soil action or/and foliar action was assessed visually according to a scale of 0-100% in comparison to an untreated comparative group: 0%=no noticeable effect compared to the untreated comparative group; 100%=full effect compared to the untreated comparative group.
# (§3) (notes: the term “seeds” also includes vegetative propagation forms such as, for example, rhizome pieces; abbreviations used: h light=hours of illumination, g of AS/ha=gram of active substance per hectare, l/ha=liter per hectare, S=sensitive, R=resistant) • 1. Pre-emergence action against weeds: seeds of various broad-leaved weed and weed grass biotypes (origins) were sown in a 8-13 cm diameter pot filled with natural soil of a standard field soil (loamy silt; non-sterile) and covered with a covering soil layer of about 1 cm. The pots were then cultivated in a greenhouse (12-16 h of light, temperature day 20-22° C., night 15-18° C.) until the time of application. The pots were treated at the BBCH stage 00-10 of the seeds/plants on a laboratory track sprayer with spray liquors comprising the compositions according to the invention, mixtures or components used individually, as WG, WP, EC or other formulations. The application rate for the spray application was 100-600 l of water/ha. After the treatment, the plants were returned to the greenhouses and, when required, treated with fertilizer and watered. • 2. Post-emergence action against weeds: seeds of various broad-leaved weed and weed grass biotypes (origins) were sown in a 8-13 cm diameter pot filled with natural soil of a standard field soil (loamy silt; non-sterile) and covered with a covering soil layer of about 1 cm. The pots were then cultivated in a greenhouse (12-16 h of light, temperature day 20-22° C., night 15-18° C.) until the time of application. The pots were treated at various BBCH stages between 11-25 of the seeds/plants, i.e. generally between two to three weeks after the start of the cultivation, on a laboratory track sprayer with spray liquors comprising the compositions according to the invention, mixtures or components used individually, as WG, WP, EC or other formulations. The application rate for the spray application was 100-600 l of water/ha. After the treatment, the plants were returned to the greenhouses and, when required, treated with fertilizer and watered. • 3. Pre-emergence action against weeds with and without incorporation of active compound: seeds of various broad-leaved weed and weed grass biotypes (origins) were sown in a 8-13 cm diameter pot filled with natural soil of a standard field soil (loamy silt; non-sterile). […]
# [2] = test system: Poa annua (POAAN); assay: Greenhouse trial: PE soil application vs incorporation into the soil (test methods 1, 3 and 4); settings: Incorporation into the soil; g of AS/ha: A 75, B 60, C 70, mixture 75 + 60 + 70
# Method: as §1, §2, §3
# [3] = test system: Hordeum vulgare, summer barley (HORVS); assay: Greenhouse trial: different sowing depths on PE application, crop plant (test method 9); settings: g of AS/ha: A 90, B 90, C 140, mixture 90 + 90 + 140
# Method: as §1, §2, §3
# [4] = test system: Hordeum vulgare, summer barley (HORVS); assay: Greenhouse trial: different soil pH values on PE application, crop plant (test method 11)
# Method: as §1, §2, §3
# [5] = test system: Hordeum vulgare, summer barley (HORVS); assay: Greenhouse trial: PO application, crop plant (test methods 2 and 5); settings: g of AS/ha: A 240, B 120, C 140, mixture 240 + 120 + 140
# Method: as §1, §2
# (notes: the term “seeds” also includes vegetative propagation forms such as, for example, rhizome pieces; abbreviations used: h light=hours of illumination, g of AS/ha=gram of active substance per hectare, l/ha=liter per hectare, S=sensitive, R=resistant) • 1. Pre-emergence action against weeds: seeds of various broad-leaved weed and weed grass biotypes (origins) were sown in a 8-13 cm diameter pot filled with natural soil of a standard field soil (loamy silt; non-sterile) and covered with a covering soil layer of about 1 cm. The pots were then cultivated in a greenhouse (12-16 h of light, temperature day 20-22° C., night 15-18° C.) until the time of application. […]
# [6] = test system: Triticum aestivum, winter wheat (TRZAW); assay: Greenhouse trial: pre-sowing method vs PE application, crop plant (test method 6); settings: g of AS/ha: A 90, B 90, C 140, mixture 90 + 90 + 140
# Method: as §1, §2, §3
# [7] = test system: Triticum aestivum, winter wheat (TRZAW); assay: Greenhouse trial: PE soil application vs incorporation into the soil, crop plant (test methods 1, 3 and 4); settings: g of AS/ha: A 75, B 60, C 70, mixture 75 + 60 + 70
# Method: as §1, §2, §3
# [8] = test system: Stellaria media (STEME); assay: Greenhouse trial: different soil types (test method 7); settings: g of AS/ha: A 90, B 90, C 140, mixture 90 + 90 + 140
# Method: as §1, §2, §3
# [9] = test system: Lolium perenne (LOLPE); assay: Greenhouse trial: pre-sowing method vs PE application (test method 6); settings: g of AS/ha: A 90, B 90, C 140, mixture 90 + 90 + 140
# Method: as §1, §2, §3
# [10] = test system: Hordeum vulgare, summer barley (HORVS); assay: Greenhouse trial: different soil types, crop plant (test method 7); settings: g of AS/ha: A 90, B 90, C 140, mixture 90 + 90 + 140
# Method: as §1, §2, §3
# [11] = soil pH 7.4, g of AS/ha: A 90, B 90, C 140, mixture 90 + 90 + 140
# [12] = soil pH 8.4, g of AS/ha: A 90, B 90, C 140, mixture 90 + 90 + 140
# [13] = Application 7 days prior to sowing
structure (smiles),measurement,setting,value
"O=C(Nc1ccc(F)cc1F)c1cccnc1Oc1cccc(C(F)(F)F)c1 [(B) diflufenican, N-(2,4-difluorophenyl)-2-[3-(trifluoromethyl)phenoxy]-3-pyridinecarboxamide]","activity AVEFA pH 7.4 (visual, scale 0-100%)",[1]; [11],0%
same,"activity AVEFA pH 8.4 (visual, scale 0-100%)",[1]; [12],30%
same,"activity POAAN (visual, scale 0-100%)",[2],75%
same,"activity HORVS 5 mm (visual, scale 0-100%)",[3]; Sowing depth 5 mm,30%
same,"activity HORVS 20 mm (visual, scale 0-100%)",[3]; Sowing depth 20 mm,5%
same,"activity HORVS pH 7.4 (visual, scale 0-100%)",[4]; [11],0%
same,"activity HORVS pH 8.4 (visual, scale 0-100%)",[4]; [12],0%
same,"activity HORVS (visual, scale 0-100%)",[5],5%
same,"activity TRZAW (visual, scale 0-100%)",[6]; [13],10%
same,"activity TRZAW (visual, scale 0-100%)",[6]; PE application,10%
same,"activity TRZAW (visual, scale 0-100%)",[7]; Incorporation into the soil,20%
same,"activity TRZAW (visual, scale 0-100%)",[7]; PE application,10%
same,"activity STEME IU soil (visual, scale 0-100%)",[8]; IU soil,95%
same,"activity STEME IU/EC73 soil (visual, scale 0-100%)",[8]; IU/EC73 soil,38%
same,"activity LOLPE (visual, scale 0-100%)",[9]; [13],0%
same,"activity LOLPE (visual, scale 0-100%)",[9]; PE application,60%
same,"activity HORVS IU soil (visual, scale 0-100%)",[10]; IU soil,0%
same,"activity HORVS IU/EC73 soil (visual, scale 0-100%)",[10]; IU/EC73 soil,0%
